Test results reported in paper PMC12216609, “Inhibitors of eIF1A-ribosome interaction unveil uORF-dependent regulation of translation initiation and antitumor and antiviral effects” (The EMBO Journal, 2025).
Values joined by “and” are separate entries in the source; they are usually repeats but may differ in a detail not shown here. Equal values may be shown once. Read-outs that look alike come from different tables or passages of the source.

Tests used:
[1] = system: CUG/GUG vs AUG start codon luciferase reporters in HEK293T cells; experiment: Near-cognate AUG starting codon fidelity reporter assay (GUG, CUG vs AUG); format: cell-based; conditions: for CUG vs AUG (%): CUG start codon reporter relative to AUG reporter (AUG = 100); for CUG vs AUG (%) / GUG vs AUG (%): compound at 20uM (summary head), single-experiment calculation; for GUG vs AUG (%): GUG start codon reporter relative to AUG reporter (AUG = 100); for average CUG and GUG / average CUG and GUG relative to DMSO / CUG Average / GUG Average: NUG experiment; for CUG Average: CUG vs AUG reporter; for GUG Average: GUG vs AUG reporter; for NUG (Final data, Fig. 1E): average CUG and GUG relative to DMSO, 20 µM overnight; for GUG vs AUG data (%) / GUG vs AUG (%) Average: compound at 20uM; for GUG vs AUG data (%): individual repeat; for GUG vs AUG (%) Average: summary average of repeats, DMSO control average […]
[2] = molecular target: NSP1 (Severe acute respiratory syndrome coronavirus 2, UniProt P0DTD1)
[3] = system: IRF7 5'UTR firefly luciferase reporter in HEK293T cells; conditions: for Reference vs IRF7 (Final data, Fig. 1E): 1/Result, relative to DMSO; for LONG (summary - All), normalized to DMSO / SHORT (summary - All), normalized to DMSO: individual replicates, outliers excluded, DMSO = 1; for SHORT (summary - All), normalized to DMSO: Short reporter; for average ( long vs short ratio): summary - All;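 as to all read-outs here: luciferase signal corrected by a co-transfected GFP reporter for transfection efficiency, read after overnight compound exposure, with Long and Short reporters differing in 5'UTR length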
Method: For the effect on ribosomal scanning, we used two firefly luciferase reporter genes that differ in their 5'UTR length (Fig. 1C). […] Cells were transfected with these reporters along with a GFP reporter gene used to normalize transfection efficiency. After an overnight 1Ai or DMSO (vehicle control) exposure, luciferase and GFP expression were measured, and normalized activity was determined.
For the reference vs IRF7 5'UTR luciferase reporter assay, HEK239T cells in a 12-well plate were transfected with the previously described IRF7 5'UTR or reference firefly luciferase reported genes (Sehrawat et al, [2019]) (100 ng/well) together with GFP (20 ng/well) that served as an internal control by CaCl2 transfection. After 6 h, half of the growth medium was replaced with a medium containing the different compounds, reaching a final concentration of 20 µM. Twenty-four hours after transfection, transfection efficiency was evaluated using GFP fluorescence intensity (Cytation 5, ex/em: 470/525). Cells were harvested in 50 µL Reported lysis buffer (RLB) and put on a shaker for 10 min. From each well 5 µL were taken in duplicates and tested by luminometer.

[4] = molecular target: T1, eIF1A (Homo sapiens, UniProt P47813); format: binding; conditions: for fluorescence ratio, eIF1A: background-corrected, relative to DMSO or lowest 1Ai concentration, replicate columns; for WT eIF1A IC50: fluorescence binding; for IC50 concentration (µM), WT eIF1A: summary table, fluorescence binding assay
T1 construct: His-bdSUMO (cleaved yes); made in house; host or cells: E. coli BL-21
T1 sequence (P47813 whole entry): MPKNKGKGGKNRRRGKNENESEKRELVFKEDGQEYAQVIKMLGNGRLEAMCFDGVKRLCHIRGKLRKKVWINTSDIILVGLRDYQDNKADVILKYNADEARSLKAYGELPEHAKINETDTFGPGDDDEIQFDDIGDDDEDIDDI

[5] = molecular target: T2, eIF1A-RPS10 interaction (Homo sapiens, UniProt P46783+P47813); experiment: Split-Renilla luciferase eIF1A-RPS10 interaction screen, dose-response; format: biochemical; conditions: summary table; read-out: IC50 concentration (µM), IC50 screen
T2 construct: made in house; host or cells: E. coli BL21 (PRSFduet); unpurified lysate supernatant
T2 sequence (P47813 whole entry, one chain of several): as the sequence (P47813 whole entry) above
Outline: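 Split-Renilla luciferase complementation using bacterially expressed (BL21) eIF1A-ΔC-Renilla and RPS10-ΔN-Renilla in clarified lysates (TKE buffer); eIF1A C-terminus fused to N-RL. Compound interference with eIF1A-RPS10 interaction read as loss of reconstituted RL activity; split-RL halves alone served as controls.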

[6] = raw data calculation of one experiment, GFP normalized, AUG set to 100, compound marked (20)

Cn1c(=O)c2ccccc2n2c(CNC(c3ccc4c(c3)CCC4)c3cccs3)nnc12 (stereo not shown) [1Ai-7688]
CUG vs AUG (%) [1]: 6.15%
GUG vs AUG (%) [1]: 1.391%
average CUG and GUG [1]: 3.434
average CUG and GUG relative to DMSO [1]: 0.7613
CUG Average [1]: 5.347
GUG Average [1]: 1.52
NUG (Final data, Fig. 1E) [1]: 0.761
GUG vs AUG data (%) [1]: 1.96% and 1.30% and 1.49% and 1.33%
GUG vs AUG (%) Average [1]: 1.52%
calculation: CUG (AUG = 100) [1, 6]: 4.522
calculation: GUG (AUG = 100) [1, 6]: 1.611
GFP reporter ratio nsp1/gfp, avg [2]: 0.4413
GFP reporter ratio nsp1/gfp, rep 1 [2]: 0.4413
gfp signal, mean of duplicate wells [2]: 1907
nsp1 signal, mean of duplicate wells [2]: 841.5
ratio (nsp1/gfp) [2]: 0.441
Reference vs IRF7 (Final data, Fig. 1E) ([3]; 20 µM): 1.509
LONG (summary - All), normalized to DMSO ([3]; Long reporter, 20 µM): 0.23 and 0.0442 and 0.78 and 0.63 and 1.12 and 0.61
SHORT (summary - All), normalized to DMSO ([3]; 20 µM): 0.19 and 0.05 and 1.25 and 0.79 and 1.33 and 1.55
Long 5'UTR reporter luciferase activity, normalized to DMSO (=1), single replicates ([3]; compound at 20 µM, left data block (Long), source data of Fig 1C): 0.2324 and 0.04416 and 0.7839 and 0.6346 and 1.115 and 0.6102
average ( long vs short ratio) ([3]; 20 µM): 0.663
fluorescence ratio, eIF1A ([4]; 1Ai conc. 0.25 uM): 1.037 and 0.9455
fluorescence ratio, eIF1A ([4]; 1Ai conc. 0.5 uM): 1.0637 and 0.9156
fluorescence ratio, eIF1A ([4]; 1Ai conc. 1 uM): 1.06 and 0.9161
fluorescence ratio, eIF1A ([4]; 1Ai conc. 2 uM): 1.104 and 0.9936
fluorescence ratio, eIF1A ([4]; 1Ai conc. 4 uM): 1.1 and 0.9264
fluorescence ratio, eIF1A ([4]; 1Ai conc. 8 uM): 1.007 and 0.92
fluorescence ratio, eIF1A ([4]; 1Ai conc. 16 uM): 0.939 and 0.9024
fluorescence ratio, eIF1A ([4]; 1Ai conc. 32 uM): 0.8822 and 0.9176
fluorescence ratio, eIF1A ([4]; 1Ai conc. 64 uM): 0.9562 and 1.05
fluorescence ratio, eIF1A ([4]; 1Ai conc. 256 uM): 1.305 and 1.351
WT eIF1A IC50 [4]: No binding
IC50 concentration (µM), WT eIF1A [4]: No binding
IC50 [5]: 20 µM

Cc1ccc(C)n1-c1cc([N+](=O)[O-])ccc1N1CCN(C(=O)c2ccccc2)CC1 [1Ai-9008]
CUG vs AUG (%) [1]: 13.0714%
GUG vs AUG (%) [1]: 3.675%
average CUG and GUG [1]: 8.448
average CUG and GUG relative to DMSO [1]: 1.873
CUG Average [1]: 12.6998
GUG Average [1]: 4.196
NUG (Final data, Fig. 1E) [1]: 1.873
GUG vs AUG data (%) [1]: 4.42% and 4.68% and 2.86% and 4.83%
GUG vs AUG (%) Average [1]: 4.20%
GFP reporter ratio nsp1/gfp, avg [2]: 0.4707
GFP reporter ratio nsp1/gfp, rep 1 [2]: 0.4454
GFP reporter ratio nsp1/gfp, rep 2 [2]: 0.4961
gfp signal, mean of duplicate wells [2]: 2743.5 and 4942
nsp1 signal, mean of duplicate wells [2]: 1361 and 2201
ratio (nsp1/gfp) [2]: 0.496 and 0.445
Reference vs IRF7 (Final data, Fig. 1E) ([3]; 20 µM): 0.775
LONG (summary - All), normalized to DMSO ([3]; Long reporter, 20 µM): 0.81 and 0.44 and 0.52 and 0.48
SHORT (summary - All), normalized to DMSO ([3]; 20 µM): 0.66 and 0.59 and 0.24 and 0.26
Long: Normalized to average DMSO ([3]; data section, Long reporter, GFP-corrected, 20 µM, per experiment, includes values excluded as outliers): 0.8135 and 0.4384 and 0.5246 and 0.4822
average ( long vs short ratio) ([3]; 20 µM): 1.290
fluorescence ratio, eIF1A ([4]; 1Ai conc. 0.25 uM): 0.8521 and 1
fluorescence ratio, eIF1A ([4]; 1Ai conc. 0.5 uM): 0.8814 and 1.016
fluorescence ratio, eIF1A ([4]; 1Ai conc. 1 uM): 0.8675 and 0.9766
fluorescence ratio, eIF1A ([4]; 1Ai conc. 2 uM): 1.139 and 0.9182
fluorescence ratio, eIF1A ([4]; 1Ai conc. 4 uM): 1.153 and 0.9421
fluorescence ratio, eIF1A ([4]; 1Ai conc. 8 uM): 0.9831 and 0.8499
fluorescence ratio, eIF1A ([4]; 1Ai conc. 16 uM): 0.926 and 0.7716
fluorescence ratio, eIF1A ([4]; 1Ai conc. 32 uM): 0.9353 and 0.7367
fluorescence ratio, eIF1A ([4]; 1Ai conc. 64 uM): 1.131 and 0.7322
fluorescence ratio, eIF1A ([4]; 1Ai conc. 256 uM): 1.254 and 0.8135
WT eIF1A IC50 [4]: No binding
IC50 concentration (µM), WT eIF1A [4]: No binding
IC50 [5]: 27 µM
